Test results from PubChem BioAssay (NCI).
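1) Cells in 96-well plates. 2) Compound, 48 h, 5 concentrations. 3) Linear interpolation between surrounding doses. 4) Unreached endpoint = highest concentration. TGI: total growth inhibition.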

Experiments:
Experiment in all cases: inhibition of tumour cell growth, NCI panel, 48 h
[1] = system: CCRF-CEM leukemia
[2] = system: HCT-116 colon
[3] = system: UACC-62 melanoma
[4] = system: DMS 114 small cell lung
[5] = system: SNB-75 CNS
[6] = system: K-562 leukemia
[7] = system: HOP-62 NSCLC
[8] = system: SW-620 colon
[9] = system: HOP-92 NSCLC
[10] = system: M19-MEL melanoma
[11] = system: A498 renal
[12] = system: MALME-3M melanoma
[13] = system: UACC-257 melanoma
[14] = system: SNB-78 CNS
[15] = system: COLO 205 colon
[16] = system: MOLT-4 leukemia
[17] = system: LOX IMVI melanoma
[18] = system: RXF 393 renal
[19] = system: A549 NSCLC
[20] = system: IGROV1 ovarian
[21] = system: OVCAR-8 ovarian
[22] = system: SR leukemia
[23] = system: RPMI-8226 leukemia
[24] = system: TK-10 renal
[25] = system: OVCAR-5 ovarian
[26] = system: M14 melanoma
[27] = system: UO-31 renal
[28] = system: DMS 273 small cell lung
[29] = system: OVCAR-4 ovarian
[30] = system: HL-60(TB) leukemia
[31] = system: SF-295 CNS
[32] = system: HT29 colon
[33] = system: SNB-19 CNS
[34] = system: NCI-H23 lung
[35] = system: SK-MEL-28 melanoma
[36] = system: SF-539 CNS
[37] = system: HCT-15 colon
[38] = system: HOP-18 NSCLC
[39] = system: KM12 colon
[40] = system: NCI-H226 lung
[41] = system: EKVX NSCLC
[42] = system: NCI-H460 lung
[43] = system: SF-268 CNS
[44] = system: SN12C renal
[45] = system: 786-0 renal
[46] = system: SK-OV-3 ovarian
[47] = system: SK-MEL-5 melanoma
[48] = system: OVCAR-3 ovarian
[49] = system: LXFL 529 NSCLC
[50] = system: U251 CNS
[51] = system: RXF-631 renal
[52] = system: HCC-2998 colon
[53] = system: CAKI-1 renal
[54] = system: SK-MEL-2 melanoma
[55] = system: HS 578T breast
[56] = system: NCI-H522 lung
[57] = system: MDA-MB-231 breast
[58] = system: XF 498 CNS
[59] = system: MDA-MB-435
[60] = system: KM20L2 colon
[61] = system: NCI/ADR-RES ovarian
[62] = system: T-47D breast
[63] = system: BT-549 breast
[64] = system: DU-145 prostate
[65] = system: MDA-N
[66] = system: ACHN renal
[67] = system: PC-3 prostate
[68] = system: DLD-1 colon
[69] = system: MCF7 breast

Cc1ccc(S(=O)(=O)Nc2cccc(C)c2C)cc1
TGI [1]: > 100 µM
TGI [2]: > 100 µM
TGI [3]: > 100 µM
TGI [4]: > 100 µM
TGI [5]: 86.8 µM
TGI [6]: > 100 µM
TGI [7]: > 100 µM
TGI [8]: > 100 µM
TGI [9]: > 100 µM
TGI [10]: > 100 µM
TGI [11]: > 100 µM
TGI [12]: > 100 µM
TGI [13]: > 100 µM
TGI [14]: > 100 µM
TGI [15]: > 100 µM
TGI [16]: > 100 µM
TGI [17]: > 100 µM
TGI [18]: 84 µM
TGI [19]: > 100 µM
TGI [20]: > 100 µM
TGI [21]: > 100 µM
TGI [22]: > 100 µM
TGI [23]: > 100 µM
TGI [24]: > 100 µM
TGI [25]: > 100 µM
TGI [26]: > 100 µM
TGI [27]: > 100 µM
TGI [28]: > 100 µM
TGI [29]: > 100 µM
TGI [30]: 87.1 µM
TGI [31]: > 100 µM
TGI [32]: > 100 µM
TGI [33]: > 100 µM
TGI [34]: > 100 µM
TGI [35]: 81.5 µM
TGI [36]: > 100 µM
TGI [37]: > 100 µM
TGI [38]: > 100 µM
TGI [39]: > 100 µM
TGI [40]: > 100 µM
TGI [41]: > 100 µM
TGI [42]: > 100 µM
TGI [43]: > 100 µM
TGI [44]: > 100 µM
TGI [45]: > 100 µM
TGI [46]: > 100 µM
TGI [47]: > 100 µM
TGI [48]: > 100 µM
TGI [49]: > 100 µM
TGI [50]: 79.9 µM
TGI [51]: > 100 µM
TGI [52]: > 100 µM

O=C1C=CC(=O)c2c1cc1ccccc1c2O
TGI [1]: 5.91 µM
TGI [2]: 4.05 µM
TGI [53]: 12.7 µM
TGI [3]: 20 µM
TGI [54]: 30.9 µM
TGI [5]: 33.2 µM
TGI [6]: 4.85 µM
TGI [7]: 26.6 µM
TGI [8]: 3.59 µM
TGI [9]: 3.61 µM
TGI [10]: 11.3 µM
TGI [11]: 28.8 µM
TGI [55]: 38.9 µM
TGI [12]: 17.2 µM
TGI [13]: 7.91 µM
TGI [14]: 10.5 µM
TGI [15]: 6.15 µM
TGI [17]: 9.06 µM
TGI [56]: 3.98 µM
TGI [18]: 4.98 µM
TGI [57]: 4.25 µM
TGI [19]: 35.3 µM
TGI [20]: 15.6 µM
TGI [21]: 8.96 µM
TGI [23]: > 26 µM
TGI [58]: 8.39 µM
TGI [24]: 11 µM
TGI [25]: 32.5 µM
TGI [59]: 19.2 µM
TGI [26]: 26.5 µM
TGI [27]: 9.11 µM
TGI [28]: 29.5 µM
TGI [29]: 5.67 µM
TGI [31]: 31.6 µM
TGI [32]: 24 µM
TGI [33]: 35.9 µM
TGI [34]: 27.6 µM
TGI [35]: 20 µM
TGI [36]: 25 µM
TGI [37]: 13.3 µM
TGI [38]: 32.3 µM
TGI [39]: 26.4 µM
TGI [40]: 37.6 µM
TGI [41]: 22.8 µM
TGI [42]: 41.3 µM
TGI [60]: 40.2 µM
TGI [61]: 25.8 µM
TGI [43]: 29.2 µM
TGI [44]: 25.2 µM
TGI [45]: 18.7 µM
TGI [62]: 3.49 µM
TGI [63]: 21.6 µM
TGI [64]: 28.3 µM
TGI [46]: 34.3 µM
TGI [47]: 24.5 µM
TGI [65]: 18.5 µM
TGI [48]: 4.8 µM
TGI [66]: 8.26 µM
TGI [49]: 3.99 µM
TGI [50]: 27.1 µM
TGI [67]: 19.1 µM
TGI [68]: 3.24 µM
TGI [52]: 32.8 µM

O=[P+](O)c1cccs1
TGI [1]: > 100 µM
TGI [2]: > 100 µM
TGI [53]: > 100 µM
TGI [3]: > 100 µM
TGI [4]: > 100 µM
TGI [6]: > 100 µM
TGI [8]: > 100 µM
TGI [9]: > 100 µM
TGI [10]: > 100 µM
TGI [11]: > 100 µM
TGI [15]: > 100 µM
TGI [16]: > 100 µM
TGI [17]: > 100 µM
TGI [56]: > 100 µM
TGI [18]: > 100 µM
TGI [19]: > 100 µM
TGI [20]: > 100 µM
TGI [21]: > 100 µM
TGI [23]: > 100 µM
TGI [58]: > 100 µM
TGI [24]: > 100 µM
TGI [26]: > 100 µM
TGI [27]: > 100 µM
TGI [28]: > 100 µM
TGI [30]: > 100 µM
TGI [31]: > 100 µM
TGI [32]: > 100 µM
TGI [33]: > 100 µM
TGI [34]: > 100 µM
TGI [35]: > 100 µM
TGI [36]: > 100 µM
TGI [37]: > 100 µM
TGI [38]: > 100 µM
TGI [41]: > 100 µM
TGI [42]: > 100 µM
TGI [60]: > 100 µM
TGI [43]: > 100 µM
TGI [44]: > 100 µM
TGI [46]: > 100 µM
TGI [47]: > 100 µM
TGI [66]: > 100 µM
TGI [49]: > 100 µM
TGI [50]: > 100 µM
TGI [68]: > 100 µM

COc1cc(-c2ccc(Nc3ccccc3C(=O)O)c(OC)c2)ccc1Nc1ccccc1C(=O)O
TGI [1]: 86.1 µM
TGI [2]: 23.6 µM
TGI [53]: > 71.1 µM
TGI [69]: > 100 µM
TGI [3]: 35.6 µM
TGI [4]: > 100 µM
TGI [54]: 58.6 µM
TGI [5]: 91.3 µM
TGI [6]: > 100 µM
TGI [7]: 49.8 µM
TGI [8]: > 100 µM
TGI [9]: 66.9 µM
TGI [11]: > 96.5 µM
TGI [55]: > 100 µM
TGI [12]: > 100 µM
TGI [13]: > 100 µM
TGI [14]: > 100 µM
TGI [15]: > 100 µM
TGI [16]: > 100 µM
TGI [17]: 30.9 µM
TGI [56]: 66.6 µM
TGI [18]: 83.3 µM
TGI [57]: > 91.6 µM
TGI [19]: > 100 µM
TGI [20]: > 100 µM
TGI [21]: 81.5 µM
TGI [22]: > 84.6 µM
TGI [23]: > 95.8 µM
TGI [58]: > 100 µM
TGI [24]: > 89 µM
TGI [25]: > 87.5 µM
TGI [59]: 46 µM
TGI [26]: > 100 µM
TGI [27]: > 58.9 µM
TGI [28]: > 100 µM
TGI [29]: > 100 µM
TGI [30]: 65.8 µM
TGI [31]: > 100 µM
TGI [32]: > 100 µM
TGI [33]: > 100 µM
TGI [34]: 71 µM
TGI [35]: > 100 µM
TGI [36]: 45 µM
TGI [37]: 51.6 µM
TGI [38]: > 100 µM
TGI [39]: > 70.9 µM
TGI [40]: 60.7 µM
TGI [41]: > 97.4 µM
TGI [42]: 36.7 µM
TGI [60]: > 100 µM
TGI [61]: > 100 µM
TGI [43]: > 100 µM
TGI [44]: > 73.6 µM
TGI [45]: > 100 µM
TGI [62]: > 65.7 µM
TGI [63]: 57.4 µM
TGI [64]: 49.9 µM
TGI [46]: > 100 µM
TGI [47]: > 100 µM
TGI [65]: 97.5 µM
TGI [48]: 39.1 µM
TGI [66]: > 94.6 µM
TGI [49]: > 100 µM
TGI [50]: 37.3 µM
TGI [67]: > 67.4 µM
TGI [68]: > 72.8 µM
TGI [52]: > 82 µM
